For the assay, the system named is HT-29. Kind of assay: Antiproliferative activity against human HT-29 cells after 1 to 15 hrs. In kind it is functional, cell-based.

Molecules are shown by their SMILES. Active and inactive are the calls of the source. The calls are words filed in the database; no cut-off is given here.

As to `CCC(C)C1OC(=O)[C@@H](NC(=O)c2cccc(O)c2O)[C@H](C)OC(=O)C(C)(C)C(=O)C(CC(C)C)OC1=O` (some centres not stated), the result was Active.
Under `CCC(C)C1OC(=O)[C@@H](NC(=O)c2cccc(N)c2O)[C@H](C)OC(=O)C(C)(C)C(=O)C(CC(C)C)OC1=O` (some centres not stated) stands “Active”.

These data come from ChEMBL document CHEMBL2401734, “Structures and biosynthesis of 12-membered macrocyclic depsipeptides from Streptomyces sp. ML55” (Bioorg Med Chem Lett, 2013).
